The source of these data is patent publication US8421457B2, “Methods and systems for magnetically resonating both a subject and a substance administered to the subject” (Applied Magnetics, LLC, priority 2008, dated 2013).

The test system of the experiment is patients with high cholesterol. In words: Case report: cholesterol drug combined with MR treatment. Type of experiment: in vivo, human. The following applies: person taking Lipitor; three MR treatments per week for twenty months. How it is done: In one example, a person was taking the drug Lipitor to manage their cholesterol levels. The subject began a series of three treatments per week for twenty months, and continuing on an ongoing basis. […] In order to provide MR treatment for cholesterol, the MR device settings may range from an amplitude from about 0.4998 μG to about 0.075 μG and a frequency from about 2.1 Hz to about 13.9996 Hz, or ranges within these ranges.

For the compound `CC(C)c1c(C(=O)Nc2ccccc2)c(-c2ccccc2)c(-c2ccc(F)cc2)n1CC[C@@H](O)C[C@@H](O)CC(=O)O` [Lipitor], the cholesterol levels result was “at the best ratio in twenty years”.
